Laboratory results from PubChem BioAssay AID248 (DTP/NCI, 2004).
Several values for one entry are separate records, joined by “and”; a condition that tells them apart may be missing. Identical values can stand only once. Inconclusive results and toxic doses are left out. Cut-off read from the data, not from the text of the source: active = T/C of 150% or more; inactive = T/C below 125%.

System: L1210 leukemia ip in BDF1 mice, survival T/C
Assay: NCI In Vivo Anticancer Drug Screen. Data for tumor model L1210 Leukemia (intraperitoneal) in B6D2F1 (BDF1) mice
Settings: endpoint: mean survival time, higher = longer survival
In short: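 Antitumor effect is assessed in tumor-bearing animals. Survival in the compound arm is compared with a vehicle-dosed control arm and expressed as their quotient.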

[1] = dose: 100.0 mg/kg/injection, schedule: Q04DX003 (ip), vehicle: Klucel (hydroxypropylcellulose) (HPC)
[2] = dose: 400.0 mg/kg/injection, schedule: Q04DX003 (ip), vehicle: Klucel (hydroxypropylcellulose) (HPC)
[3] = dose: 100.0 mg/kg/injection, schedule: Q01DX009 (ip), vehicle: Klucel (hydroxypropylcellulose) (HPC)
[4] = dose: 200.0 mg/kg/injection, schedule: Q01DX009 (ip), vehicle: Klucel (hydroxypropylcellulose) (HPC)
[5] = dose: 400.0 mg/kg/injection, schedule: Q01DX009 (ip), vehicle: Klucel (hydroxypropylcellulose) (HPC)
[6] = dose: 100.0 mg/kg/injection, schedule: Q04DX003 (ip), vehicle: saline with Tween-80
[7] = dose: 200.0 mg/kg/injection, schedule: Q04DX003 (ip), vehicle: saline with Tween-80
[8] = dose: 400.0 mg/kg/injection, schedule: Q04DX003 (ip), vehicle: saline with Tween-80
[9] = dose: 100.0 mg/kg/injection, schedule: Q04DX003 (ip), vehicle: saline
[10] = dose: 200.0 mg/kg/injection, schedule: Q04DX003 (ip), vehicle: saline
[11] = dose: 100.0 mg/kg/injection, schedule: Q01DX001 (ip), vehicle: carboxymethylcellulose (CMC)
[12] = dose: 200.0 mg/kg/injection, schedule: Q01DX001 (ip), vehicle: carboxymethylcellulose (CMC)
[13] = dose: 400.0 mg/kg/injection, schedule: Q01DX001 (ip), vehicle: carboxymethylcellulose (CMC)
[14] = dose: 100.0 mg/kg/injection, schedule: Q01DX009 (ip), vehicle: saline
[15] = dose: 200.0 mg/kg/injection, schedule: Q01DX009 (ip), vehicle: saline

Measured: T/C

Cl/C(=C\c1ccccc1)c1ccccc1
inactive: dose: 25.0 mg/kg/injection, schedule: Q04DX003 (ip), vehicle: Klucel (hydroxypropylcellulose) (HPC) 96 % of control | dose: 50.0 mg/kg/injection, schedule: Q04DX003 (ip), vehicle: Klucel (hydroxypropylcellulose) (HPC) 95 % of control | [1] 96 % of control | [2] 101 % of control

O=C(O)CCCCSCCSCCCCC(=O)O
inactive: [3] 101 % of control | [4] 94 % of control | [5] 86 % of control

Cc1ccc(NC(=S)NCCO)cc1
inactive: [6] 100 % of control | [7] 102 % of control | [8] 97 % of control

Nc1ccc2c(c1)CCC2=O
inactive: dose: 100.0 mg/kg/injection, schedule: Q04DX002 (ip), vehicle: saline with Tween-80 98 % of control | dose: 200.0 mg/kg/injection, schedule: Q04DX002 (ip), vehicle: saline with Tween-80 102 % of control | dose: 400.0 mg/kg/injection, schedule: Q04DX002 (ip), vehicle: saline with Tween-80 90 % of control

COc1ccc2c(C(=O)CCC(=O)O)cccc2c1
inactive: [9] 104 % of control | [10] 95 % of control | dose: 400.0 mg/kg/injection, schedule: Q04DX003 (ip), vehicle: saline 106 % of control

CCOc1cc(S(N)(=O)=O)ccc1Cl
inactive: dose: 100.0 mg/kg/injection, schedule: Q01DX001 (ip), vehicle: saline with Tween-80 89 % of control | dose: 200.0 mg/kg/injection, schedule: Q01DX001 (ip), vehicle: saline with Tween-80 93 % of control | dose: 400.0 mg/kg/injection, schedule: Q01DX001 (ip), vehicle: saline with Tween-80 96 % of control

N#CC1(c2ccccc2)CCCCC1
inactive: [11] 96 % of control | [12] 89 % of control | [13] 94 % of control

c1ccc2c(c1)ccc1cc3cccc[n+]3cc12
inactive: dose: 0.31 mg/kg/injection, schedule: Q01DX009 (ip), vehicle: saline 98 % of control | dose: 0.62 mg/kg/injection, schedule: Q01DX009 (ip), vehicle: saline 98 % of control | dose: 1.25 mg/kg/injection, schedule: Q01DX009 (ip), vehicle: saline 101 % of control and 104 % of control | dose: 5.0 mg/kg/injection, schedule: Q04DX003 (ip), vehicle: saline 102 % of control | dose: 10.0 mg/kg/injection, schedule: Q04DX003 (ip), vehicle: saline 96 % of control

CCCCC=C(C)C
inactive: dose: 50.0 mg/kg/injection, schedule: Q01DX001 (ip), vehicle: carboxymethylcellulose (CMC) 106 % of control | [11] 93 % of control | [12] 104 % of control | [13] 104 % of control

O=C1OC(=C(c2ccccc2)c2ccccc2)c2ccccc21
inactive: [14] 100 % of control | [6] 96 % of control | [15] 100 % of control | [7] 96 % of control | [8] 90 % of control

C=COCCCCCCCCCCCCCCCCCC
inactive: dose: 100.0 mg/kg/injection, schedule: Q01DX001 (ip), vehicle: other 95 % of control | dose: 200.0 mg/kg/injection, schedule: Q01DX001 (ip), vehicle: other 95 % of control | dose: 400.0 mg/kg/injection, schedule: Q01DX001 (ip), vehicle: other 96 % of control

Cc1cccc[c]1[Sb](=[O])([OH])[OH]
inactive: dose: 5.0 mg/kg/injection, schedule: Q01DX001 (ip), vehicle: saline 94 % of control | dose: 10.0 mg/kg/injection, schedule: Q01DX001 (ip), vehicle: saline 97 % of control | dose: 20.0 mg/kg/injection, schedule: Q01DX001 (ip), vehicle: saline 97 % of control | dose: 40.0 mg/kg/injection, schedule: Q01DX001 (ip), vehicle: saline 103 % of control | dose: 80.0 mg/kg/injection, schedule: Q01DX001 (ip), vehicle: saline 105 % of control

Cc1ccc2nc(-c3cccc([N+](=O)[O-])c3)oc(=O)c2c1
inactive: [6] 87 % of control | [7] 97 % of control | [8] 97 % of control

CCOc1ccc(NC(=O)c2cccc(C(=O)Nc3ccc(OCC)cc3)c2)cc1
inactive: [3] 104 % of control | [1] 91 % of control | [4] 101 % of control | dose: 200.0 mg/kg/injection, schedule: Q04DX003 (ip), vehicle: Klucel (hydroxypropylcellulose) (HPC) 98 % of control | [5] 95 % of control | [2] 93 % of control

CCN(C)CCC(CNC(=O)CN(CC)CC)(c1cccc2ccccc12)C(C)C (stereo not drawn)
inactive: dose: 50.0 mg/kg/injection, schedule: Q01DX009 (ip), vehicle: saline 94 % of control | [14] 91 % of control | [9] 103 % of control | [15] 101 % of control | [10] 103 % of control
